Values joined by “and” are separate entries in the source; they are usually repeats but may differ in a detail not shown here. Identical values can stand only once.
Legend:
[1] = molecular target: T1, Fructose-bisphosphate aldolase (Candida albicans (strain SC5314 / ATCC MYA-2876) (Yeast), UniProt Q9URB4); assay: Inhibition of Candida albicans zinc dependent class 2 Fba
T1 sequence (Q9URB4 whole entry): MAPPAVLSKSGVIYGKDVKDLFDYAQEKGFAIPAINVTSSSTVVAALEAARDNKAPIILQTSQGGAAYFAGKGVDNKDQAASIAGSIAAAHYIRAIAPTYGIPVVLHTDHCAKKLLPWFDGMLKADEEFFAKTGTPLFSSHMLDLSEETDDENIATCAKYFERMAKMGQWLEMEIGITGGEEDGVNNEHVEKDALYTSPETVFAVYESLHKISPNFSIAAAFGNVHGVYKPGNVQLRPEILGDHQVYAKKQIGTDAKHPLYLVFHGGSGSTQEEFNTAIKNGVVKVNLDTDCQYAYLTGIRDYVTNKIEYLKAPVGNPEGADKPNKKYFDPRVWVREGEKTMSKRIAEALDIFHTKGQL

[2] = molecular target: T2, Fructose-bisphosphate aldolase A (Oryctolagus cuniculus, UniProt P00883)
T2 sequence (P00883 whole entry): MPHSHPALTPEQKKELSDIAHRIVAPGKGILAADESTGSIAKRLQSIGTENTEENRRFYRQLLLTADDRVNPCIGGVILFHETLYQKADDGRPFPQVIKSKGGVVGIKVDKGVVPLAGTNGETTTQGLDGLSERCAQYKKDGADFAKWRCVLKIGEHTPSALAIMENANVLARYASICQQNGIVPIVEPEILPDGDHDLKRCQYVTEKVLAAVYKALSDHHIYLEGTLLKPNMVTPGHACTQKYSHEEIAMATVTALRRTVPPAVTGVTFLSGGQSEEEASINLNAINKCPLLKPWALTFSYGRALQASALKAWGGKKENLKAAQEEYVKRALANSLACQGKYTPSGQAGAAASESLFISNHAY

[3] = molecular target: T3, Fructose-bisphosphate aldolase (Helicobacter pylori (strain ATCC 700392 / 26695) (Campylobacterpylori), UniProt P56109)
T3 sequence (P56109 whole entry): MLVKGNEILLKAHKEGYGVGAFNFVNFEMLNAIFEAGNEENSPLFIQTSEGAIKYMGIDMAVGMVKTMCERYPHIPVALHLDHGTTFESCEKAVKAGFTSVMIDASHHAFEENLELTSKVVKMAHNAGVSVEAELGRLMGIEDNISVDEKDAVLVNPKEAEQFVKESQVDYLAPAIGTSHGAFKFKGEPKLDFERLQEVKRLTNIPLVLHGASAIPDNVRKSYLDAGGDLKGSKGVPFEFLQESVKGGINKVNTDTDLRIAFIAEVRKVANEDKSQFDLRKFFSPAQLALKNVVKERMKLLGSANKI

[4] = molecular target: T4, Fructose-bisphosphate aldolase class II (Yersinia pestis, UniProt A0A380PJR2)
T4 sequence (A0A380PJR2 whole entry): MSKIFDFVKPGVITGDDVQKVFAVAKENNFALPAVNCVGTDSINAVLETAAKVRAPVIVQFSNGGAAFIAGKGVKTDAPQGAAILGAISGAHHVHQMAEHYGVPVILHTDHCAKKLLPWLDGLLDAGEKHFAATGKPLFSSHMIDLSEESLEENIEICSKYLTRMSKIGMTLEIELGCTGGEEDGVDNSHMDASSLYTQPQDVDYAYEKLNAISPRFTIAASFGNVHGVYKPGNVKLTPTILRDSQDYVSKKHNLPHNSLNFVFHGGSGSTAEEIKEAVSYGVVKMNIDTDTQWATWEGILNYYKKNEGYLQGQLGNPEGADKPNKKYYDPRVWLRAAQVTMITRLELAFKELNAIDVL

[5] = molecular target: T5, Fructose-bisphosphate aldolase (Mycobacterium tuberculosis, UniProt P9WQA3)
T5 sequence (P9WQA3 whole entry): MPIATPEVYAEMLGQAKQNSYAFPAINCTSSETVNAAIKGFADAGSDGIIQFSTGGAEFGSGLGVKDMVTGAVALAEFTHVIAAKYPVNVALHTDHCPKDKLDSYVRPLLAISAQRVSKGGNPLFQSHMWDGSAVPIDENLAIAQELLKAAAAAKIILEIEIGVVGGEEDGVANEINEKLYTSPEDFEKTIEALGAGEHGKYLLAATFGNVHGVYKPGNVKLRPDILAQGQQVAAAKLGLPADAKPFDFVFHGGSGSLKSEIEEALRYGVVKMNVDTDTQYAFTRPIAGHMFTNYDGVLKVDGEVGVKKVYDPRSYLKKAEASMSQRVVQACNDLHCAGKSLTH

CCCCCC(=O)OCCCCN(O)C(=O)COP(=O)(O)O
Ki [1]: 0.28 µM and 0.276 µM

O=C(COP(=O)(O)O)N(O)CCCO
Ki [2]: 2500 µM

O=C(COP(=O)(O)O)N(O)CCCCO
Ki [1]: 0.3 µM and 0.297 µM

CCCCCCCCCCCC(=O)OCCCCN(O)C(=O)COP(=O)(O)O
Ki [1]: 0.8 µM and 0.815 µM
Ki [2]: 67 µM

O=C(COP(=O)(O)O)N(O)CCCCOP(=O)(O)O
IC50 [1]: 0.0048 µM
Ki [1]: 0.003 µM and 0.00325 µM
IC50 [3]: 0.131 µM
IC50 [4]: 0.036 µM
IC50 [5]: 0.0032 µM
IC50 [2]: 112 µM

O=C(COP(=O)(O)O)[C@@H](O)[C@H](O)[C@H](O)COP(=O)(O)O
Ki [4]: 55 µM
Ki [5]: 21 µM
